Reference: patent US10479780B2, “Aminopyrazole derivatives” (Chugai Seiyaku Kabushiki Kaisha, priority 2015, dated 2019)
Like-named read-outs stand apart in the source and are kept apart here.

Columns and labels:
Format in all cases: biochemical
[1] = target: T1, human Yes1 enzyme (Homo sapiens, UniProt P07947); test: Yes1 enzyme inhibitory activity (time-resolved fluorometry, biotinylated peptide phosphorylation); conditions: read-out: YES_IC50
T1 construct: made in house
Outline: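 Inhibition was expressed against a compound-free control to give IC50, using TR-FRET read-out (Eu-cryptate anti-pTyr antibody, streptavidin-XL665).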

[2] = target: T2, human Lck enzyme (Homo sapiens, UniProt P06239); test: Lck enzyme inhibitory activity (time-resolved fluorometry, biotinylated peptide phosphorylation); conditions: read-out: LCK_IC50
T2 construct: purchased Carna Biosciences, Inc. 08-170
Outline: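 Readout pairs a europium cryptate-labelled anti-phosphotyrosine antibody with XL665-streptavidin, measured by time-resolved fluorescence. IC50 derived from percent inhibition against untreated controls.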

[3] = target: T3, human Src enzyme (Homo sapiens, UniProt P12931); test: Src enzyme inhibitory activity (time-resolved fluorometry, biotinylated peptide phosphorylation); conditions: read-out: SRC_IC50
T3 construct: purchased Carna Biosciences, Inc. 08-173
Outline: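 Compounds were tested for blocking tyrosine phosphorylation of a biotinylated peptide substrate by recombinant human Src. Phosphorylated product was quantified by time-resolved fluorometry using europium cryptate and XL665 conjugates, and IC50 was calculated against the compound-free control.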

[4] = biotinylated peptide phosphorylation

T1 sequence (P07947 whole entry): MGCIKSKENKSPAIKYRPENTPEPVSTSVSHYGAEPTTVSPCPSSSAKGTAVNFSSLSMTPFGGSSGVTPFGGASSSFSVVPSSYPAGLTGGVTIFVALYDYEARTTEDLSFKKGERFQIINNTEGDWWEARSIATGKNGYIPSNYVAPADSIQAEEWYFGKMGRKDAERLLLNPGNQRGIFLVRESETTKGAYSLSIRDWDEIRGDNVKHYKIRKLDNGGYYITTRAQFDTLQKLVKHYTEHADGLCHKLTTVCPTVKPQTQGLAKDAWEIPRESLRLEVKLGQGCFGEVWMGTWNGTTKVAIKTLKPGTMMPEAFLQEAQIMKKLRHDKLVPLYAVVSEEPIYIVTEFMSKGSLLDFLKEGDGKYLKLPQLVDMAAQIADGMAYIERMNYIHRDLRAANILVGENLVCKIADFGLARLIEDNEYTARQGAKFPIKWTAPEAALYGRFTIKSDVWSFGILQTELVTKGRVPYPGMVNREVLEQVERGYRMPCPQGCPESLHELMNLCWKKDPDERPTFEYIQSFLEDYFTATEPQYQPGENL
T3 sequence (P12931 whole entry): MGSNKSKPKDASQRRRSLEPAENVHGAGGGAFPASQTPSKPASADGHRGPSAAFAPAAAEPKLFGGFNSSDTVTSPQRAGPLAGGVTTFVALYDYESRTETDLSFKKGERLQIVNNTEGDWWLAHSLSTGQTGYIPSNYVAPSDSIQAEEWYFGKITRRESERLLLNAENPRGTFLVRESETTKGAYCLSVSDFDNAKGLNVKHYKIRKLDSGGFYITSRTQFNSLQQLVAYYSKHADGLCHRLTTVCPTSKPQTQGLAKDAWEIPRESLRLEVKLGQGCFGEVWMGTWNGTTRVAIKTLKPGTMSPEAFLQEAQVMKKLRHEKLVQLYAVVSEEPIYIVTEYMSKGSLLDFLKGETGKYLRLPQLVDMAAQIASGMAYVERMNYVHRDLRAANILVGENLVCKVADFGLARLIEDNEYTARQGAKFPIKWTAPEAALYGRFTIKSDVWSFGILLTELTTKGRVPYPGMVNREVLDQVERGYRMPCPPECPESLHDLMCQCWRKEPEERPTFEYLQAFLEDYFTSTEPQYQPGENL
T2 sequence (P06239 whole entry): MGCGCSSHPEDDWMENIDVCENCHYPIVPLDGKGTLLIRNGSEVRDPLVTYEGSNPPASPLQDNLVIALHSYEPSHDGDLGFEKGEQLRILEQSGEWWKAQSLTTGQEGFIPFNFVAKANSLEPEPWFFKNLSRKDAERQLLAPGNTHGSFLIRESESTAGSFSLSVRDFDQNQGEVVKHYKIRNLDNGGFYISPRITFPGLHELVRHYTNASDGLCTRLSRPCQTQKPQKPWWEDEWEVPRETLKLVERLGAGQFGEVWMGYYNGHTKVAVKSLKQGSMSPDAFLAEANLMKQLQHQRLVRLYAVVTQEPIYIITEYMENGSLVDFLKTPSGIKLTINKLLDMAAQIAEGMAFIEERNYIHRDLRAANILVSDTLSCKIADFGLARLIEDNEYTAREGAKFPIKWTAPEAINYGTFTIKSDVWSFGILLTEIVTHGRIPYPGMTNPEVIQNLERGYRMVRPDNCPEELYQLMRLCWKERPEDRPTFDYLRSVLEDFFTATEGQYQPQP

SMILES | IC50 [1, 4] | IC50 [2, 4] | IC50 [3, 4] | IC50 [1] | IC50 [2] | IC50 [3]
Cc1cc2cc(C(=O)c3cnn(-c4ccc(Oc5ccccc5F)cc4C)c3N)[nH]c2cc1N1C(=O)NC(C)(C(F)(F)F)C1=O (stereo not drawn) [Example 5-1-435, 3-[2-[5-amino-1-[4-(2-fluorophenoxy)-2-methylphenyl]pyrazole-4-carbonyl]-5-methyl-1H-indol-6-yl]-5-methyl-5-(trifluoromethyl) imidazolidine-2,4-dione] | 0.002 µM | 0.021 µM | 0.12 µM |  |  | 
Cc1cc(Oc2ccccc2F)ccc1-n1ncc(C(=O)c2cc3cc(OC(F)F)c(NS(=O)(=O)C4CCOCC4)cc3[nH]2)c1N [Example 5-1-390, N-[2-[5-amino-1-[4-(2-fluorophenoxy)-2-methylphenyl]pyrazole-4-carbonyl]-5-(difluoromethoxy)-1H-indol-6-yl]oxane-4-sulfonamie] |  |  |  | 0.0019 µM | 0.025 µM | 0.044 µM
Cc1cc(Oc2cccc(Cl)c2)ncc1-n1ncc(C(=O)c2cc3cc(Cl)c(NS(C)(=O)=O)cc3[nH]2)c1N [Example 4-2-091, N-[2-[5-amino-1-[6-(3-chlorophenoxy)-4-methylpyridin-3-yl]pyrazole-4-carbonyl]-5-chloro-1H-indol-6-yl]methanesulfonamide] | 0.0097 µM | 0.14 µM | 0.35 µM |  |  | 
Cc1cc(Oc2c(F)cccc2F)ncc1-n1ncc(C(=O)c2cc3cc(OCC(F)F)c(NS(=O)(=O)C4CC4)cc3[nH]2)c1N [Example 4-24-030, N-[2-[5-amino-1-[6-(2,6-difluorophenoxy)-4-methylpyridin-3-yl]pyrazole-4-carbonyl]-5-(2,2-difluoroethoxy)-1H-indol-6-yl]cyclopropanesulfonamide] | 0.0017 µM | 0.023 µM | 0.12 µM |  |  | 
Cc1cc(Oc2ccccc2F)cc(F)c1-n1ncc(C(=O)c2cc3cc(OC(F)F)c(N4CCCS4(=O)=O)cc3[nH]2)c1N [Example 4-25-003, [5-amino-1-[2-fluoro-4-(2-fluorophenoxy)-6-methylphenyl]pyrazol-4-yl]-[5-(difluoromethoxy)-6-(1,1-dioxo-1,2-thiazolidin-2-yl)-1H-indol-2-yl]methanone] | 0.0039 µM | 0.019 µM | 0.13 µM |  |  | 
Cc1cc2cc(C(=O)c3cnn(-c4ccc(Oc5ccccc5F)cc4C)c3N)[nH]c2cc1N1C(=O)N[C@@H](C)C1=O [Example 5-1-444, (5S)-3-[2-[5-amino-1-[4-(2-fluorophenoxy)-2-methylphenyl]pyrazole-4-carbonyl]-5-methyl-1H-indol-6-yl]-5-methylimidazolidine-2,4-dione] | 0.00065 µM | 0.0039 µM | 0.013 µM |  |  | 
CC(C)N1CCC(c2cc3cc(C(=O)c4cnn(-c5ccc(Oc6cccc(Cl)c6)cc5F)c4N)[nH]c3cc2F)CC1 [Example 5-1-003, [5-amino-1-[4-(3-chlorophenoxy)-2-fluorophenyl]pyrazol-4-yl]-[6-fluoro-5-(1-propan-2-ylpiperidin-4-yl)-1H-indol-2-yl]methanone] |  |  |  | 0.002 µM | 0.0047 µM | 0.026 µM
Cc1cc(Oc2c(F)cccc2F)ncc1-n1ncc(C(=O)c2cc3cc(OCC(F)F)c(C4CCN(S(C)(=O)=O)CC4)cc3[nH]2)c1N [Example 4-17-023, [5-amino-1-[6-(2,6-difluorophenoxy)-4-methylpyridin-3-yl]pyrazol-4-yl]-[5-(2,2-difluoroethoxy)-6-(1-methylsulfonylpiperidin-4-yl)-1H-indol-2-yl]methanone] | 0.0068 µM | 0.021 µM | 0.027 µM |  |  | 
Cc1cc(Oc2ccccc2F)ncc1-n1ncc(C(=O)c2cc3cc(OCC(F)F)c(N4CCCC4=O)cc3[nH]2)c1N [Example 4-25-013, 1-{2-{5-amino-1-[6-(2-fluorophenoxy)-4-methylpyridin-3-yl]pyrazole-4-carbonyl}-5-(2,2-difluoroethoxy)-1H-indol-6-yl}pyrrolidin-2-one] | 0.001 µM | 0.004 µM | 0.016 µM |  |  | 
CC(C)N1CCC(c2cc3cc(C(=O)c4cnn(-c5ccc(Oc6cccc(F)c6)cc5)c4N)[nH]c3cc2F)CC1 [Example 4-2-006, [5-amino-1-[4-(3-fluorophenoxy)phenyl]pyrazol-4-yl]-[6-fluoro-5-(1-propan-2-ylpiperidin-4-yl)-1H-indol-2-yl]methanone] | 0.0013 µM | 0.0033 µM | 0.012 µM |  |  | 
Cc1cc(Oc2c(F)cccc2F)ncc1-n1ncc(C(=O)c2cc3cc(F)c(N4C(=O)N[C@@H](C(C)C)C4=O)cc3[nH]2)c1N [Example 5-1-431, (5S)-3-[2-[5-amino-1-[6-(2,6-difluorophenoxy)-4-methylpyridin-3-yl]pyrazole-4-carbonyl]-5-fluoro-1H-indol-6-yl]-5-propan-2-ylimidazolidine-2,4-dione] | 0.0049 µM | 0.02 µM | 0.19 µM |  |  | 
Cc1cc2cc(C(=O)c3cnn(-c4cnc(Oc5c(F)cccc5F)cc4C)c3N)[nH]c2cc1N1C(=O)NC(C)(C)C1=O [Example 5-1-286, 3-[2-[5-amino-1-[6-(2,6-difluorophenoxy)-4-methylpyridin-3-yl]pyrazole-4-carbonyl]-5-methyl-1H-indol-6-yl]-5,5-dimethylimidazolidine-2,4-dione] |  |  |  | 0.0023 µM | 0.0053 µM | 0.03 µM
Cc1cc(Oc2ccccc2F)cc(F)c1-n1ncc(C(=O)c2cc3cc(OC(F)F)c(NS(=O)(=O)C4CC4)cc3[nH]2)c1N [Example 4-24-005, N-[2-[5-amino-1-[2-fluoro-4-(2-fluorophenoxy)-6-methylphenyl]pyrazole-4-carbonyl]-5-(difluoromethoxy)-1H-indol-6-yl]cyclopropanesulfonamide] | 0.0047 µM | 0.047 µM | 0.24 µM |  |  | 
Cc1cc(-n2ncc(C(=O)c3cc4cc(OC5CCN(C(C)C)CC5)c(-c5cncnc5)cc4[nH]3)c2N)ccc1Oc1ccccc1F [Example 5-1-240, [5-amino-1-[4-(2-fluorophenoxy)-3-methylphenyl]pyrazol-4-yl]-[5-(1-propan-2-ylpiperidin-4-yl)oxy-6-pyrimidin-5-yl-1H-indol-2-yl]methanone] |  |  |  | 0.002 µM | 0.019 µM | 0.075 µM
Cc1cc(Oc2ccccc2F)ccc1-n1ncc(C(=O)c2cc3cc(N4CCOCC4)c(N4CCC(N5CCOCC5)CC4)cc3[nH]2)c1N [Example 5-1-124, [5-amino-1-[4-(2-fluorophenoxy)-2-methylphenyl]pyrazol-4-yl]-[5-morpholin-4-yl-6-(4-morpholin-4-ylpiperidin-1-yl)-1H-indol-2-yl]methanone] |  |  |  | 0.00099 µM | 0.01 µM | 0.07 µM
Cc1cc(Oc2c(F)cccc2F)ncc1-n1ncc(C(=O)c2cc3cc(OC4CCN(C5CCC5)CC4)c(Br)cc3[nH]2)c1N [Example 5-1-221, [5-amino-1-[6-(2,6-difluorophenoxy)-4-methylpyridin-3-yl]pyrazol-4-yl]-[6-bromo-5-(1-cyclobutylpiperidin-4-yl)oxy-1H-indol-2-yl] methanone] |  |  |  | 0.00066 µM | 0.0075 µM | 0.0064 µM
Cc1cc(Oc2c(F)cccc2F)ncc1-n1ncc(C(=O)c2cc3cc(F)c(N4CCCC4=O)cc3[nH]2)c1N [Example 5-1-098, 1-[2-[5-amino-1-[6-(2,6-difluorophenoxy)-4-methylpyridin-3-yl]pyrazole-4-carbonyl]-5-fluoro-1H-indol-6-yl]pyrrolidin-2-one] |  |  |  | 0.0019 µM | 0.0014 µM | 0.015 µM
Cc1cc(Oc2c(F)cccc2F)ncc1-n1ncc(C(=O)c2cc3cc(OC(F)F)c(C4CCN(S(C)(=O)=O)CC4)cc3[nH]2)c1N [Example 4-17-012, [5-amino-1-[6-(2,6-difluorophenoxy)-4-methylpyridin-3-yl]pyrazol-4-yl]-[5-(difluoromethoxy)-6-(1-methylsulfonylpiperidin-4-yl)-1H-indol-2-yl]methanone] | 0.016 µM | 0.03 µM | 0.045 µM |  |  | 
Cc1cc(Oc2ccccc2F)cc(F)c1-n1ncc(C(=O)c2cc3cc(OCC(F)F)c(NC4COC4)cc3[nH]2)c1N [Example 4-23-019, [5-amino-1-[2-fluoro-4-(2-fluorophenoxy)-6-methylphenyl]pyrazol-4-yl]-[5-(2,2-difluoroethoxy)-6-(oxetan-3-ylamino)-1H-indol-2-yl]methanone] | 0.0018 µM | 0.0064 µM | 0.028 µM |  |  | 
Cc1cc(Oc2c(F)cccc2F)ncc1-n1ncc(C(=O)c2cc3cc(F)c(NS(=O)(=O)c4cccc(C#N)c4)cc3[nH]2)c1N [Example 5-1-492, N-[2-[5-amino-1-[6-(2,6-difluorophenoxy)-4-methylpyridin-3-yl]pyrazole-4-carbonyl]-5-fluoro-1H-indol-6-yl]-3-cyanobenzenesulfonamide] | 0.008 µM | 0.15 µM | 0.76 µM |  |  | 
Cc1cc(Oc2c(F)cccc2F)ncc1-n1ncc(C(=O)c2cc3cc(OCC(F)F)c(N4C(=O)C(C)(C)NC4=S)cc3[nH]2)c1N [Example 4-23-036, 3-{2-{5-amino-1-[6-(2,6-difluorophenoxy)-4-methylpyridin-3-yl]pyrazole-4-carbonyl}-5-(2,2-difluoroethoxy)-1H-indol-6-yl}-5,5-dimethyl-2-sulfanylideneimidazolidin-4-one] | 0.001 µM | 0.0064 µM | 0.031 µM |  |  | 
Cc1cc(Oc2ccccc2F)ccc1-n1ncc(C(=O)c2cc3cc(C(C)C)c(NS(=O)(=O)C4CCOCC4)cc3[nH]2)c1N [Example 5-1-282, N-[2-[5-amino-1-[4-(2-fluorophenoxy)-2-methylphenyl]pyrazole-4-carbonyl]-5-propan-2-yl-1H-indol-6-yl]oxane-4-sulfonamide] |  |  |  | 0.0048 µM | 0.12 µM | 0.2 µM
